The text below walks through data of patent US20260327221A1, “INHIBITORS OF CYCLIC GMP-AMP SYNTHASE AND USES THEREOF” (Ventus Therapeutics U.S., Inc., priority 2023, published 2026).

The structures appear in SMILES notation. Bounds are passed on as bounds.

The target of this assay is hcGAS (Homo sapiens, UniProt Q8N884). In words: hcGAS LCMS assay (direct measurement of cGAMP production by LC/MS). In kind it is biochemical. The settings on record: 4 h incubation with enzyme and substrates; cGAMP production by LC/MS; class symbols; read-out: hcGAS LCMS IC50. The procedure: cGAS catalyzes the cyclization of ATP and GTP to produce cGAMP, which is the activating ligand of STING. Human cGAS (hcGAS) inhibition can thus be quantified by measuring how much cGAMP is formed either indirectly, by monitoring ATP-depletion as in the hcGAS Kinase-Glo assay (as described below), or directly, such as using the hcGAS LCMS assay (as described below).
2. hGAS LCMS Assay Conditions
Compounds were tested for their hcGAS inhibition activity using direct measurement of cGAMP production by LC/MS. Briefly, compounds were incubated with enzyme and substrates for 4 hours (see Table C), before the reaction was stopped with 3 volumes of 70/30 Acetonitrile/H2O mix containing 0.15 uM cGAMP-^13C10^15N5 as internal standard and mixed for 5 mmn. After centrifugation (3700 rpm, […], […]), 100 uL of each reaction was collected and mixed to equal volume of acetonitrile (MeCN). Samples were then analyzed on Qexactive (Column: XBridge BEH Amide Column, 130 Å, 3.5 μm, 3 mm×50 mm. Mobile phase A: 10 mM Ammonium acetate in 95/5 H2O/MeCN (0.5% DMSO), Mobile phase B: MeCN (0.5% DMSO).
The results of the assay, expressed as IC50 values, are reported in Table D with the following designations: A represents an IC50 value <0.005 μM (with A1 representing an IC50 value <0.0005 μM, A2 representing an IC50 value ≥0.0005 μM and <0.001 μM, and A3 representing an IC50 value ≥0.001 μM and <0.005 μM); B represents an IC50 value ≥0.005 μM and <0.02 μM; C represents an IC50 value ≥0.02 μM and <0.06 μM; and D represents an IC50 value ≥0.06 μM.

Chain of hcGAS (Q8N884 whole entry): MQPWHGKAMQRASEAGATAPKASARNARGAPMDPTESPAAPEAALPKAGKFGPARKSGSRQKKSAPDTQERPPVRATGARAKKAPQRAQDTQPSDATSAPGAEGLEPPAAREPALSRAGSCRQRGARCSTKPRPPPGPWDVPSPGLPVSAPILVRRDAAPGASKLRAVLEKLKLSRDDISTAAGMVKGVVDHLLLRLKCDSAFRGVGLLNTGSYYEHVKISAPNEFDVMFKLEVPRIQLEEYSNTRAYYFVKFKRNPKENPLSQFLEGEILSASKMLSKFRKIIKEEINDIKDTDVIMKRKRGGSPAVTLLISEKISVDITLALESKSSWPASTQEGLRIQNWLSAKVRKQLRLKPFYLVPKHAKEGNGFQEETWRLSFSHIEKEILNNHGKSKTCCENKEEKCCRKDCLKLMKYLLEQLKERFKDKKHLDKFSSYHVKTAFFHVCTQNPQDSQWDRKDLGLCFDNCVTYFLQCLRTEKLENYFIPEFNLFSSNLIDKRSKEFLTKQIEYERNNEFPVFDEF

For the compound `COCCOc1c(-c2ncccc2OC)cc(C(=O)Nc2nnc(-n3nccc3C)s2)oc1=O` [Compound 4, 3-(2-methoxyethoxy)-4-(3-methoxypyridin-2-yl)-N-(5-(5-methyl-1H-pyrazol-1-yl)-1,3,4-thiadiazol-2-yl)-2-oxo-2H-pyran-6-carboxamide], the IC50 fell in the range of 5 to 20 nM.
As for `COCCOc1c(-c2c(OC)cccc2OC)cc(C(=O)Nc2nnc(-c3c(Cl)ccn3C)s2)oc1=O` [Compound 5, N-(5-(3-chloro-1-methyl-1H-pyrrol-2-yl)-1,3,4-thiadiazol-2-yl)-4-(2,6-dimethoxyphenyl)-3-(2-methoxyethoxy)-2-oxo-2H-pyran-6-carboxamide], the IC50 is less than 0.5 nM.
`COCCOc1c(-c2c(OC)cccc2OC)cc(C(=O)Nc2nnc(-n3nccc3N)s2)oc1=O` [Compound 6, N-(5-(5-amino-1H-pyrazol-1-yl)-1,3,4-thiadiazol-2-yl)-4-(2,6-dimethoxyphenyl)-3-(2-methoxyethoxy)-2-oxo-2H-pyran-6-carboxamide]: the IC50 fell in the range of 0.5 to 1 nM.
For the compound `COCCOc1c(-c2ncccc2C#N)cc(C(=O)Nc2nnc(-n3nccc3C)s2)oc1=O` [Compound 7, 4-(3-cyanopyridin-2-yl)-3-(2-methoxyethoxy)-N-(5-(5-methyl-1H-pyrazol-1-yl)-1,3,4-thiadiazol-2-yl)-2-oxo-2H-pyran-6-carboxamide], the IC50 was in the range of 1 to 5 nM.
With `COCCOc1c(-c2c(C#N)cccc2OC)cc(C(=O)Nc2nnc(-n3nccc3N)s2)oc1=O` [Compound 8, N-(5-(5-amino-1H-pyrazol-1-yl)-1,3,4-thiadiazol-2-yl)-4-(2-cyano-6-methoxyphenyl)-3-(2-methoxyethoxy)-2-oxo-2H-pyran-6-carboxamide] the figure was 0.5 to 1 nM.
For the compound `COCCOc1c(-c2ncccc2C#N)cc(C(=O)Nc2nnc(-n3nccc3N)s2)oc1=O` [Compound 9, N-(5-(5-amino-1H-pyrazol-1-yl)-1,3,4-thiadiazol-2-yl)-4-(3-cyanopyridin-2-yl)-3-(2-methoxyethoxy)-2-oxo-2H-pyran-6-carboxamide], the IC50 lay in the range of 0.5 to 1 nM.
Next, `COCCOc1c(-c2ncccc2OC)cc(C(=O)Nc2nnc(-n3nccc3N)s2)oc1=O` [Compound 10, N-(5-(5-amino-1H-pyrazol-1-yl)-1,3,4-thiadiazol-2-yl)-3-(2-methoxyethoxy)-4-(3-methoxypyridin-2-yl)-2-oxo-2H-pyran-6-carboxamide]: 1 to 5 nM; `COCCOc1c(-c2c(C)cccc2OC)cc(C(=O)Nc2nnc(-n3nccc3N)s2)oc1=O` [Compound 11, N-(5-(5-amino-1H-pyrazol-1-yl)-1,3,4-thiadiazol-2-yl)-4-(2-methoxy-6-methylphenyl)-3-(2-methoxyethoxy)-2-oxo-2H-pyran-6-carboxamide]: 0.5 to 1 nM.
Regarding `COCCOc1c(-c2c(C#N)cccc2C#N)cc(C(=O)Nc2nnc(-n3nccc3N)s2)oc1=O` [Compound 12, N-(5-(5-amino-1H-pyrazol-1-yl)-1,3,4-thiadiazol-2-yl)-4-(2,6-dicyanophenyl)-3-(2-methoxyethoxy)-2-oxo-2H-pyran-6-carboxamide], the IC50 is 0.5 to 1 nM.
Regarding `COCCOc1c(-c2c(F)cccc2OC)cc(C(=O)Nc2nnc(-n3nccc3N)s2)oc1=O` [Compound 13, N-(5-(5-amino-1H-pyrazol-1-yl)-1,3,4-thiadiazol-2-yl)-4-(2-fluoro-6-methoxyphenyl)-3-(2-methoxyethoxy)-2-oxo-2H-pyran-6-carboxamide], the IC50 lay within 0.5 to 1 nM.
As to `COc1c(-c2c(C#N)cnn2C)cc(C(=O)Nc2nnc(-n3nccc3C)s2)oc1=O` [Compound 14, 4-(4-cyano-1-methyl-1H-pyrazol-5-yl)-3-methoxy-N-(5-(5-methyl-1H-pyrazol-1-yl)-1,3,4-thiadiazol-2-yl)-2-oxo-2H-pyran-6-carboxamide], the IC50 is 20 to 60 nM.
Next, `COc1cccc(OC)c1-c1cc(C(=O)Nc2nnc(-n3nccc3N)s2)oc(=O)c1OCCO` [Compound 17, N-(5-(5-amino-1H-pyrazol-1-yl)-1,3,4-thiadiazol-2-yl)-4-(2,6-dimethoxyphenyl)-3-(2-hydroxyethoxy)-2-oxo-2H-pyran-6-carboxamide]: less than 0.5 nM; `COCCOc1c(-c2ncccc2OC)cc(C(=O)Nc2nnc(-c3c(F)ccn3C)s2)oc1=O` [Compound 18, N-(5-(3-fluoro-1-methyl-1H-pyrrol-2-yl)-1,3,4-thiadiazol-2-yl)-3-(2-methoxyethoxy)-4-(3-methoxypyridin-2-yl)-2-oxo-2H-pyran-6-carboxamide]: 1 to 5 nM.
With `COCCOc1c(-c2c(OC)ccnc2OC)cc(C(=O)Nc2nnc(-n3nccc3N)s2)oc1=O` [Compound 19, N-(5-(5-amino-1H-pyrazol-1-yl)-1,3,4-thiadiazol-2-yl)-4-(2,4-dimethoxypyridin-3-yl)-3-(2-methoxyethoxy)-2-oxo-2H-pyran-6-carboxamide] the figure was 1 to 5 nM; with `COCC(COC)Oc1c(-c2c(OC)cccc2OC)cc(C(=O)Nc2nnc(-n3nccc3N)s2)oc1=O` [Compound 20, N-(5-(5-amino-1H-pyrazol-1-yl)-1,3,4-thiadiazol-2-yl)-4-(2,6-dimethoxyphenyl)-3-((1,3-dimethoxypropan-2-yl)oxy)-2-oxo-2H-pyran-6-carboxamide], 1 to 5 nM; with `COCCCOc1c(-c2ncccc2OC)cc(C(=O)Nc2nnc(-n3nccc3N)s2)oc1=O` [Compound 21, N-(5-(5-amino-1H-pyrazol-1-yl)-1,3,4-thiadiazol-2-yl)-3-(3-methoxypropoxy)-4-(3-methoxypyridin-2-yl)-2-oxo-2H-pyran-6-carboxamide], 1 to 5 nM.
Consider `COc1cccc(OC)c1-c1cc(C(=O)Nc2nnc(-n3nccc3N)s2)oc(=O)c1OCCN1CCOCC1` [Compound 22, N-(5-(5-amino-1H-pyrazol-1-yl)-1,3,4-thiadiazol-2-yl)-4-(2,6-dimethoxyphenyl)-3-(2-morpholinoethoxy)-2-oxo-2H-pyran-6-carboxamide], for which the IC50 fell in the range of 1 to 5 nM.
Turning to `COCCOc1c(-c2c(C#N)cccc2OC)cc(C(=O)Nc2nnc(-n3nccc3C(F)F)s2)oc1=O` [Compound 23, 4-(2-cyano-6-methoxyphenyl)-N-(5-(5-(difluoromethyl)-1H-pyrazol-1-yl)-1,3,4-thiadiazol-2-yl)-3-(2-methoxyethoxy)-2-oxo-2H-pyran-6-carboxamide], the IC50 fell in the range of 0.5 to 1 nM.
With `COc1cccc(C#N)c1-c1cc(C(=O)Nc2nnc(-n3nccc3Cl)s2)oc(=O)c1OCCO` [Compound 26, N-(5-(5-chloro-1H-pyrazol-1-yl)-1,3,4-thiadiazol-2-yl)-4-(2-cyano-6-methoxyphenyl)-3-(2-hydroxyethoxy)-2-oxo-2H-pyran-6-carboxamide] the figure was less than 0.5 nM; with `COCCOc1cccc(OC)c1-c1cc(C(=O)Nc2nnc(-n3nccc3N)s2)oc(=O)c1OCCOC` [Compound 27, N-(5-(5-amino-1H-pyrazol-1-yl)-1,3,4-thiadiazol-2-yl)-4-(2-methoxy-6-(2-methoxyethoxy)phenyl)-3-(2-methoxyethoxy)-2-oxo-2H-pyran-6-carboxamide], 1 to 5 nM.
With `COCCOc1c(-c2c(OC)cncc2OC)cc(C(=O)Nc2nnc(-n3nccc3N)s2)oc1=O` [Compound 28, N-(5-(5-amino-1H-pyrazol-1-yl)-1,3,4-thiadiazol-2-yl)-4-(3,5-dimethoxypyridin-4-yl)-3-(2-methoxyethoxy)-2-oxo-2H-pyran-6-carboxamide], the IC50 lay in the range of 1 to 5 nM.
